For test [1], the target named is T1, LDHA-86b (Homo sapiens, UniProt P00338).
T1 construct: Size (a.a., untagged); expressed in transfected cells; host or cells: HEK293T
The experiment in a line: SplitLuc CETSA of LDHA-86b (HEK293T). The test is classed as cell-based. To be noted: 63 °C for 3.5 min, 384-well PCR plates. The method, then: Cells were transfected in T75 flasks using a reverse transfection procedure, where 9 mL of complexes (45 µL Lipofectamine 2000 and 22.5 µg DNA) was combined with 10 mL of HEK293T cell suspension (1 × 10^6 cells/mL, 10 million cells total). After 24 h, cells were harvested by trypsinization, resuspended at 1 × 10^6 cells/ml as described above and dispensed (15 µL cells/well) into 384-well PCR plates (Roche) using a Multidrop Combi (ThermoFisher). Compounds (63 nL) or DMSO vehicle control (63 nL) were subsequently pinned using a pin tool (GNF) and incubated for 1 h at 37 °C. Plates were sealed and heated at the indicated temperature for 3.5 min and cooled to 25 °C using AB qPCR machine (Roche) using ramp speed of 1.5 °C/sec for heating phase and max ramp rate for the cooling phase. […] Samples were analyzed for luminescence intensity using a ViewLux reader.
Cells were transfected and harvested as above (384-well protocol). Cells were dispensed (5 µL cell/well) into 1,536-well white plates (Aurora, cyclic olefin polymer, cat# EWB041000A) using a Multidrop Combi. Compounds (23 nL) were subsequently pinned using a pin tool (Wako Automation) and incubated for 1 h at 37 °C. Plates were heated at the indicated temperature and time using a heating block (see below) and cooled to 25 °C. […] Plates were centrifuged and analyzed for luminescence intensity using a ViewLux reader. […]

The target of test [2] is T2, human lactate dehydrogenase 5 (Homo sapiens, UniProt P00338).
T2 construct: purchased Meridian Life Science, Inc. A38558H
The experiment in a line: LDHA biochemical (enzymatic) assay. The following applies: MIPE library screen. How it is done: The LDHA biochemical assay was performed as previously described. Briefly, 3 µL of human lactate dehydrogenase 5 (2 nM final) (no. A38558H, Meridian Life Science, Inc.) in LDH assay buffer (200 mM Tris HCl, pH 7.4, 100 µM EDTA, and 0.01% Tween-20) was added to a black solid bottom 1536-well assay plate (Greiner Bio-One). Following compound pin transfer (23 nL), 1 µL of substrate solution containing NADH (0.06 mM final) and sodium pyruvate (0.2 mM final) (Sigma-Aldrich) in LDH assay buffer was dispensed to initiate the reaction. After 5 min incubation at room temperature, 1 µL of detection reagent [C. kluyveri diaphorase (0.133 mg/mL final, Sigma-Aldrich) and resazurin sodium salt (37 µM final, Sigma-Aldrich) in LDH assay buffer] was added to each well. Plates were immediately transferred to a ViewLux reader and any resulting resorufin fluorescence was measured (ex 540 nm, em 590 nm) at 0 and 10 min. Fluorescence was normalized using enzyme-free and DMSO-treated control wells on each plate.

On to `COc1ncc(-c2ccc3c(Nc4cc(Oc5cc(F)cc(F)c5)cc(C(=O)O)c4)c(S(=O)(=O)NC4CC4)cnc3c2)c(OC)n1` [GSK2837808A], for which the “thermal stabilization of LDHA-86b, re-test of screen hits” value in test [1] is listed as “confirmed”. Besides, the “activity in biochemical screen for LDHA enzymatic activity” value in test [2] is given as “common hit”.

(Values after paper PMC6013488, “A widely-applicable high-throughput cellular thermal shift assay (CETSA) using split Nano Luciferase” (Scientific Reports, 2018).)
